In US20150038589A1, “Nutritional Product Comprising a Biguanide” (priority 2011, published 2015):

Experiments:
[1] = cited from earlier work
[2] = Clinical test: double-blind trial of yoghurt drink with added metformin, 6 weeks; conditions: for Hyperinsulinaemia Internationale Unit / fasting glucose: change after 42 days
[3] = Cookie comprising metformin consumed by human volunteers; blood samples; type: in vivo; conditions: one cookie (250 mg metformin); for concentration at 1 h / concentration at 2 h / concentration at 4 h / concentration at 0 h: human, blood, oral, 250 mg, empty stomach; for concentration at 1 h: 1 hr after consumption; for concentration at 2 h: 2 hrs after consumption; for concentration at 4 h: 4 hrs after consumption; for concentration at 0 h: before consumption
Protocol: A cookie dough was prepared comprising 1000 mg fine-ground metformin per 100 g conventional cookie dough, by mixing fine-ground metformin into the dough. 40 droplets of lemon juice per 100 g dough were added to the dough comprising the metformin, in order to neutralise the bitter taste of the metformin. Thereafter, the dough was divided in pieces of 25 g, from which pieces cookies were baked in a conventional way.
Human volunteers each consumed one cookie (providing 250 mg metformin) on an empty stomach. Blood samples were taken before consumption, 1 hour after consumption, 2 hours after consumption and 4 hours after consumption.

[4] = Stability test of metformin in yoghurt (pH and metformin content); type: physicochemical
Protocol: Yoghurt is prepared as described in Example 3. A batch comprising no metformin (placebo), a batch comprising 200 mg metformin per 100 gram (low dosage) and a batch comprising 360 mg metformin (high dosage) were made.
Part of the batches were stored in a fridge (about 4° C.), other parts at room temperature (about 20° C.). Product stability was determined by measuring pH and the metformin content (measured amount as a percentage of the added amount), weekly for a period of 35 days. […] Stability at room temperature was determined for only 35 days. Tables 6 and 7 show the measured amount of metformin in both products comprising metformin (relative to calculated amount=100%). No metformin was measured in the placebo.

[5] = Trial group I (n = 6), 250 mg metformin/day in yoghurt, after 42 days
[6] = Trial group I (n = 6), 250 mg metformin/day in yoghurt
[7] = Trial group II (n = 4), 450 mg metformin/day in yoghurt, after 42 days
[8] = Trial group II (n = 4), 450 mg metformin/day in yoghurt
[9] = subjects with the product of the invention, after 42 days
[10] = up to 4 hours after consumption

## CN(C)C(=N)NC(=N)N [metformin, N,N-dimethylimidodicarbonimidic diamide]
[1]; conventional dosage form such as a tablet
  subjects with a reduction in B12 levels in blood: about 30%
[1]; conventional pharmaceutical composition comprising biguanide (metformin)
  subjects suffering from stomach complaints and diarrhoea: roughly 30%
[2]; [5]
  insulin resistance improvement (HOMA-2): −0.13
  side-effects: abdominal pain (number of subjects): 0
  side-effects: diarrhoea (number of subjects): 0
  side-effects: fatigue (number of subjects): 0
  side-effects: reflux (number of subjects): 0
  side-effects: stomach pain (number of subjects): 1
  side-effects: vertigo (number of subjects): 0
  Δ waist size: −2.0 cm
  Δ weight: -1.9 kg
[2]; [6]
  Hyperinsulinaemia Internationale Unit: −1.4 Internationale Unit
  fasting glucose: -0.12 mmol/L
[2]; [7]
  insulin resistance improvement (HOMA-2): −3.9
  side-effects: abdominal pain (number of subjects): 0
  side-effects: diarrhoea (number of subjects): 0
  side-effects: fatigue (number of subjects): 0
  side-effects: reflux (number of subjects): 0
  side-effects: stomach pain (number of subjects): 0
  side-effects: vertigo (number of subjects): 0
  Δ waist size: −3.1 cm
  Δ weight: -1.9 kg
[2]; [8]
  Hyperinsulinaemia Internationale Unit: −3.9 Internationale Unit
  fasting glucose: -0.68 mmol/L
[2]; both, human, blood, oral
  concentration at 24 h: < 250 ng/mL
[2]; out of 10 subjects in the trial group (1 in the placebo group)
  subjects indicating a reduced appetite: 4
[2]; [9]
  reduction in waist size compared to the placebo: 2-3 fold
  weight loss compared to the placebo: 3 fold
[2]; trial group I, after 42 days
  blood HDL concentration change: No change
  decrease in pulse: −6
[2]; trial group II (450 mg metformin per day), after 42 days
  blood HDL concentration change: +0.12
[2]; trial group II, after 42 days
  decrease in pulse: −2
[3]; subject 1
  concentration at 1 h: < 500 ng/mL
  concentration at 2 h: 700 ng/mL
  concentration at 4 h: 800 ng/mL
  concentration at 0 h: < 500 ng/mL
[3]; subject 2
  concentration at 1 h: < 500 ng/mL
  concentration at 2 h: < 500 ng/mL
  concentration at 4 h: 600 ng/mL
  concentration at 0 h: < 500 ng/mL
[3]; during the experiment
  negative side-effects: no negative side-effects were observed
[3]; [10]
  glucose levels in blood samples: no significant changes
  lipid levels in blood samples: no significant changes
[4]; 28 days (room temperature) or 35 days (refrigerator temperature)
  degradation of metformin in a fermented (acidic) product: no substantial degradation
[4]; metformin included in a nutritional product
  storage stability in a nutritional product: at least 5 weeks
